In patent publication US7723537B2, “Skin lightening agents, compositions and methods” (Unilever Home & Personal Care USA, Division of Conopco, Inc., priority 2004, dated 2010):

Assays:
mushroom tyrosinase = experiment: Mushroom tyrosinase assay; format: biochemical; details: for Tyrosinase activity (% of ethanol control): slope of 475-nm absorbency vs ethanol control, L-DOPA substrate; for effectiveness in skin lightening as measured by the mushroom tyrosinase assay (in words): compared with 4-ethyl resorcinol
Protocol: Mushroom tyrosinase inhibition is indicative of reduction in melanin synthesis, thereby showing skin lightening effect.
Into each well of a 96-well plate, 150 microliters of phosphate buffer (100 mM, pH 7.0), 10 microliters of L-DOPA (L-3,4-Dihydroxyphenylalanine, 10 mM), and 20 microliters of skin lightening agent (dissolved in ethanol, which is the control) were added. Following an initial measurement of background absorbency at 475-nm, 20 microliters of mushroom tyrosinase (Sigma T-7755; 6050 units/ml) was added and incubated at room temperature.
Absorbency was read at 475-nm over the following time points: 0, 2, 4, and 6.5 minutes. The data is plotted as 475-nm absorbency vs. time (minutes) and the slope of the line is calculated (ΔAbs 475 nm/min). Values are expressed as the percentage of the respective untreated ethanol control reaction.

B16 mouse melanoma cells = experiment: Cell based assay: melanin synthesis in B16 mouse melanoma cells; details: 6.25 micromolar, 72 hours, absorbency of medium at 530 nm, read-out: % of Control (Melanin Synthesis)
Protocol: This experiment was carried out using a cell based assay.
B16 mouse melanoma cells were utilized in the following experiment to evaluate the efficacy of skin lightening agents. B16 cells were plated in 96-well microtiter plates at a density of 5000 cells per well and cultured overnight in Dulbecco's Modified Eagle's Medium (phenol red free) containing 10% fetal bovine serum and 1% penicillin/streptomycin at 37° C. in the presence of 5% CO2. After 24 hours, the medium was replaced with fresh growth medium containing the treatments. All cultures were incubated for 72 hours at which time melanin was visible in the control treatment. The melanin-containing medium was transferred to a clean 96-well plate and quantified by reading the absorbency at 530-nm. Cell viability was assessed by measurement of lactate dehydrogenase levels to ensure the decrease in melanin was not a result of cellular toxicity.

Structure (SMILES) | Tyrosinase activity (% of ethanol control) (mushroom tyrosinase; 1 micro-M) | Tyrosinase activity (% of ethanol control) (mushroom tyrosinase; 1.56 micro-M) | Tyrosinase activity (% of ethanol control) (mushroom tyrosinase; 12.5 micro-M) | Tyrosinase activity (% of ethanol control) (mushroom tyrosinase; 100 micro-M) | Tyrosinase activity (% of ethanol control) (mushroom tyrosinase; 0.1 micro-M) | Tyrosinase activity (% of ethanol control) (mushroom tyrosinase; 10 micro-M) | effectiveness in skin lightening as measured by the mushroom tyrosinase assay (in words) (mushroom tyrosinase) | activity at 6.25 µM (B16 mouse melanoma cells)
COC(=O)CC(C)c1ccc(O)cc1O (stereo not drawn) [D1, Methyl 3-(2,4-dihydroxyphenyl)-butyrate] | 73.1% | 39.3% | 35.8% | 41.0% |  |  | substantially as effective as 4-ethyl resorcinol | 36.4%
O=c1ccc2ccc(O)cc2o1 [7-Hydroxy Coumarin, reference compound] | 100% |  |  | 117% | 104% | 108% |  | 

Continued, in another order:

Tyrosinase activity (% of ethanol control) (mushroom tyrosinase; 1 micro-M) | Tyrosinase activity (% of ethanol control) (mushroom tyrosinase; 1.56 micro-M) | Tyrosinase activity (% of ethanol control) (mushroom tyrosinase; 12.5 micro-M) | Tyrosinase activity (% of ethanol control) (mushroom tyrosinase; 100 micro-M) | Tyrosinase activity (% of ethanol control) (mushroom tyrosinase; 0.1 micro-M) | Tyrosinase activity (% of ethanol control) (mushroom tyrosinase; 10 micro-M) | Structure (SMILES) | effectiveness in skin lightening as measured by the mushroom tyrosinase assay (in words) (mushroom tyrosinase) | activity at 6.25 µM (B16 mouse melanoma cells)
73.3% | 41.6% | 28.0% | 20.6% |  |  | CC(CC(=O)O)c1ccc(O)cc1O (stereo not drawn) [II, 3-(2,4-dihydroxyphenyl)-butyric acid] | substantially as effective as 4-ethyl resorcinol | 32.8%
94.2% | 90.4% | 70.4% | 75.3% |  |  | CC1CC(=O)Oc2cc(O)ccc21 (stereo not drawn) [B1, 7-hydroxy-3,4-dihydro-4-methylcoumarin] | not effective in skin lightening | 75.8%
46.3% |  |  | 20.7% | 72.7% | 30.8% | CCc1ccc(O)cc1O [4-Ethyl Resorcinol, reference compound] |  | 34%
